Assay results from patent US20250115581A1, “SUBSTITUTED PIPERIDINES AS CK1A DEGRADERS” (Monte Rosa Therapeutics, Inc., priority 2022, published 2025).

Assays:
CRBN/DDB1 = CRBN/DDB1 (Homo sapiens, UniProt Q96SW2); test: HTRF binding assay (displacement of Cy5-thalidomide probe from CRBN/DDB1); conditions: CRBN/DDB1 2.5 nM, Cy5-Thalidomide 100 nM, 30 min; geometric mean; read-out: HTRF_Thali_Disp_DR_geo_IC50
Description: Binding of test compounds to CRBN/DDB1 was monitored in an HTRF assay using 1-[5-({2-[2-(2-{[2-(2,6-dioxopiperidin-3-yl)-1,3-dioxo-2,3-dihydro-1H-isoindol-4-yl]oxy}acetamido)ethoxy]ethyl}carbamoyl)pentyl]-3,3-dimethyl-2-[(1E,3E)-5-[(2E)-1,3,3-trimethyl-5-sulfo-2,3-dihydro-1H-indol-2-ylidene]penta-1,3-dien-1-yl]-3H-indol-1-ium-5-sulfonate as a fluorescent probe. In this assay, compounds displace the fluorescently labeled thalidomide-based probe bound to CRBN and fluorescence is monitored with increasing compound concentration. Assays were conducted in Greiner white 384 well HiBase plates (Cat. No 784075-25) in 10 μL total volume. A one pot detection solution of CRBN/DDB1 (2.5 nM), anti-His Terbium Cryptate Gold (1×, PerkinElmer Cat. #: 61HI2TLB), and Cy5-Thalidomide (100 nM, Tenova Cat.: T52461) was prepared in 20 mM HEPES, 20 mM NaCl, 0.2 mM TCEP, 0.2 mM EDTA, and 0.005% Tween20 was dispensed to each assay plate. Test compounds were stored in dry, ambient temperatures at 10 mM. A 10-point, 1:3 dilution series was prepared from 10 mM stock concentrations in Echo-compatible LDV plates. 10 nL of each compound dilution series was dispensed into assays wells using an Echo 650 (Labcyte inc. USA). 10 nL of 10 mM lenalidomide (Selleckchem Cat no. S1029) was transferred into the active-control wells for the assay and 10 nL of DMSO was transferred into the negative control wells. The assay was then allowed to incubate for 30 min at ambient temperature after transferring the test compounds. Plate measurements were taken on a Pherastar FSX (BMG Labtech, Germany) using the HTRF Red filter (Ex. 337 nm, em1: 620 nm, em2: 665 nm) (Flashes: 50, Integration time: 60-400 μs, Z-height: 10 mm, Ratio-multiplier: 10,000). Analysis, HTRF ratio and IC50 values were derived using KNIME analytics (KNIME Zurich) transformation and fitting within Collaborative Drug Discovery (Collaborative Drug Discovery USA) using a 4-parameter logistic fit. HTRF ratio calculation was performed using the following formula: […]
where em665 nm represents the measured emission at 665 nm upon excitation at 337 nm and em620 nm the measured emission at 620 nm upon excitation at 337 nm. The 4 parameter logistic fitting model was performed using the following formula: […]
where Y represents the HTRF ratio response (as defined previously), X the compound concentration in μM, Ymin the minimum response plateau, Ymax the maximum response plateau, IC50 the concentration of […] that gives a response half way between Ymin and Ymax and HillSlope the steepness of the family of curves. No fitting model constraints was applied on Ymin, or Ymax whilst IC50>0 and −0.5>HillSlope>−3 Cheng-Prusoff transformation
Ki values were derived from the geometric mean of the IC50 values using the Cheng-Prusoff transformation:
where [L] represents the concentration of fluorescent probe in […], Kd the affinity (binding constant) of the fluorescent probe in units of μM and IC50 the concentration of agonist that gives a response halfway between Ymin and Ymax (as described in 1.2.1)
Analysis and IC50 values were derived using KNIME analytics (KNIME, Zurich) transformation and fitting within Collaborative Drug Discovery (Collaborative Drug Discovery, USA) as described in 1.2.1. Ki values were derived from the geometric mean of the IC50 values using the Cheng-Prusoff transformation as described in 2.2.2. Data was visualized in GraphPad Prism 8.1.2 (GraphPad, USA) and reported as mean and standard deviation. Microsoft Office Excel 2012 (Redmond, WA) was used for calculation of mean and standard deviation.
IC50 data are reported in Table 3 for compounds in Table 1. In Table 3 below, According to the code, A represents a IC50 value of ≤0.1 μM, B represents a IC50 value >0.1 μM and ≤1 μM, C represents an IC50 value >1 μM.

CK1α = biological target: T1, CK1α (Homo sapiens, UniProt P48729+Q96SW2); test: CK1α NanoBit Assay (HiBiT-tagged CSNK1A1 in HEK293 cells, luminescence); assay type: cell-based; conditions: 24 h
T1 construct: HEK293 clonal lines with CRISPR KI HiBiT tag on CSNK1A1; host or cells: HEK293 clonal line, CRISPR knock-in HiBiT at the CSNK1A1 locus, stably expressing LgBiT
T1 sequence (P48729 whole entry): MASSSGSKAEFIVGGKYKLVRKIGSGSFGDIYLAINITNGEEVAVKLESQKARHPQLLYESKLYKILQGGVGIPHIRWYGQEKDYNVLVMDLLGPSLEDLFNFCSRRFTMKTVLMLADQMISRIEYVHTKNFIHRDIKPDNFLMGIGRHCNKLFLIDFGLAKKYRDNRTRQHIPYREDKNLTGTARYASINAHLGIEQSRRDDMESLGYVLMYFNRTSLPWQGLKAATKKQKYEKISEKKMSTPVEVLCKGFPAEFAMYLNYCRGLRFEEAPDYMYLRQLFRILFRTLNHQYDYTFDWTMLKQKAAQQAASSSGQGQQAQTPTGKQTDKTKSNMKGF
T1 sequence (Q96SW2 whole entry): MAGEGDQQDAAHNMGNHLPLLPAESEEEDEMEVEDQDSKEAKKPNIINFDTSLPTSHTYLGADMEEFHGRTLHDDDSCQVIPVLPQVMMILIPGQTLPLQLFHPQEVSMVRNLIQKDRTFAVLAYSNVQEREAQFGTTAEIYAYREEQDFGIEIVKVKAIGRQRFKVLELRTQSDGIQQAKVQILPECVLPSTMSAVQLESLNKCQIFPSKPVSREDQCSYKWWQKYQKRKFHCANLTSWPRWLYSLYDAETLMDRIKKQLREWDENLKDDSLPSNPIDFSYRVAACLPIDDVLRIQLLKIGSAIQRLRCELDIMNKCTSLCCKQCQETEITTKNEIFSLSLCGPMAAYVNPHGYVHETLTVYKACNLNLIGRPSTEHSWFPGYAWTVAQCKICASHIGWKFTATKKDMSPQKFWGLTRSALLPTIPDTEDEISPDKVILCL
T1 sequence (Q16531 whole entry partner): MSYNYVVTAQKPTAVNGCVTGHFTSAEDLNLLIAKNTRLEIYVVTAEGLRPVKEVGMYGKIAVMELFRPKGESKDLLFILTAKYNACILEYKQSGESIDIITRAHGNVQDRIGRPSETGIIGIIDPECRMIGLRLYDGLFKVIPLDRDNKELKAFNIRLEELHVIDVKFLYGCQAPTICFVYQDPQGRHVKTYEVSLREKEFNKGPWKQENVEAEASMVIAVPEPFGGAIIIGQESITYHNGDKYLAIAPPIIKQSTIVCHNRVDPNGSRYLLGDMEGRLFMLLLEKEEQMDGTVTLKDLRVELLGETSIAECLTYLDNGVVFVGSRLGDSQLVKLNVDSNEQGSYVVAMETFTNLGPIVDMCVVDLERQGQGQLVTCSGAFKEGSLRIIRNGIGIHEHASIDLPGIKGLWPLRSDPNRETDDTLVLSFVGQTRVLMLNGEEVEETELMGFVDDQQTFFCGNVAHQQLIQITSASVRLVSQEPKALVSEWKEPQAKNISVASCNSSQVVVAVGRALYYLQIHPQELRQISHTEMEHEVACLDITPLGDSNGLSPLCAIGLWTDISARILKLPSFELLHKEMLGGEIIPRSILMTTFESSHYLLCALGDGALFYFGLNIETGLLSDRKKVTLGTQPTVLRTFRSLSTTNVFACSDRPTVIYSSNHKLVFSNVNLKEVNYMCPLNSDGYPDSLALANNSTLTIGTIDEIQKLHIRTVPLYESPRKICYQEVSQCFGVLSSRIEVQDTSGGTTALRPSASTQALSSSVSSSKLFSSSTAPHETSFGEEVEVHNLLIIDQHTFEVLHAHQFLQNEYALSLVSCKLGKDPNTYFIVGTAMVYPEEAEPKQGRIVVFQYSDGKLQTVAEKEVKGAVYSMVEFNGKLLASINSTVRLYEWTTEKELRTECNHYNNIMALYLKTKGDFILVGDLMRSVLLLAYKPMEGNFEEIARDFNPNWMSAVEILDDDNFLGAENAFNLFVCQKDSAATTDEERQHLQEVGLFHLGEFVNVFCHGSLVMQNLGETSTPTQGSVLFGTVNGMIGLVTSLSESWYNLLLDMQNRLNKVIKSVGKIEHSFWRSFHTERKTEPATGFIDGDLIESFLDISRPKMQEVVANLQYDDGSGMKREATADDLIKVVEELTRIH
Experimental: HEK293 clonal lines with CRISPR KI HiBiT tag on CSNK1A1 and stably expressing LgBiT protein were obtained from Promega (Madison, WI). Cells were plated at 5000 cells per well using Multiflo (BioTek) in 384-well white solid bottom plates (Corning, 3570BC) in 25 μl volume in DMEM media (DMEM, high glucose, HEPES, no phenol red (ThermoFisher Scientific, 21063029)) containing 10% FBS (Corning, 35-075-CV), 1% Penicillin/Streptomycin ((ThermoFisher Scientific, 15140-122), and 0.2% Endurazine (Nano-Glo Endurazine Live Cell Substrate (Promega, N2571)). Cells were incubated for 16 hours at 37° C., 5% CO2. Depending on experiment 25 or 75 nL of a compound at 10 mM were added into the plate using an Echo® 650 liquid handler (Labcyte) to achieve final concentration of 10 or 30 μM in wells. Cells were incubated at 37° C., 5% CO2 for 24 hours and then signal was read on a Pherastar FSX using “LUM plus” optic module.
Data analysis was performed in Scinamic (Scinamic, Cambridge, MA). Luminescence response (R) was calculated by the formula: response=100*(S−N)/(P−N) where S is the signal of the well, N and P the mean negative and positive control values respectively of the same plate. The luminescence response was then fitted in Scinamic using a 3-parameter agonist logistic fit (hillslope=1, EC50>0, top/bottom unconstrained).
DC50 data are reported in Table 2 for compounds in Table 1. In Table 2 below, According to the code, A represents a DC50 value of ≤0.1 μM, B represents a DC50 value >0.1 μM and ≤1 μM, C represents an DC50 value >1 μM.

CRBN/DDB1, sequence (Q96SW2 whole entry): as the sequence (Q96SW2 whole entry) above
CRBN/DDB1, sequence (Q16531 whole entry partner): as the sequence (Q16531 whole entry partner) above

| IC50 (CRBN/DDB1) | DC50 (CK1α) | Structure (SMILES) |
| --- | --- | --- |
| 100 to 1000 nM | ≤ 0.1 µM | Cc1ccc(N2CCN(c3ccc4c(c3)CN(C3CCC(=O)NC3=O)C4=O)C2=O)c(C)c1 (centres unmarked) [Compound 150, 3-(5-(3-(2,4-dimethylphenyl)-2-oxoimidazolidin-1-yl)-1-oxoisoindolin-2-yl)piperidine-2,6-dione] |
| 100 to 1000 nM | ≤ 0.1 µM | O=C1CCC(N2Cc3cc(N4CCN(c5ccc(Cl)cc5)C4=O)ccc3C2=O)C(=O)N1 (centres unmarked) [Compound 114] |
| 100 to 1000 nM | ≤ 0.1 µM | O=C1CCC(N2Cc3cc(N4CCN(c5ccc(C(F)F)cc5)C4=O)ccc3C2=O)C(=O)N1 (centres unmarked) [Compound 129, 3-(5-(3-(4-(difluoromethyl)phenyl)-2-oxoimidazolidin-1-yl)-1-oxoisoindolin-2-yl)piperidine-2,6-dione] |
| 100 to 1000 nM | > 1 µM | O=C1CCC(N2Cc3cc(N4CCN(C5CN(c6ccccc6)C5)C4=O)ccc3C2=O)C(=O)N1 (centres unmarked) [Compound 174, 3-(1-oxo-5-(2-oxo-3-(1-phenylazetidin-3-yl)imidazolidin-1-yl)isoindolin-2-yl)piperidine-2,6-dione] |
| 100 to 1000 nM | > 1 µM | CC1C(C)N(c2ccc3c(c2)CN(C2CCC(=O)NC2=O)C3=O)C(=O)N1c1ccccc1 (centres unmarked) [Compound 113, 3-(5-(4,5-dimethyl-2-oxo-3-phenylimidazolidin-1-yl)-1-oxoisoindolin-2-yl)piperidine-2,6-dione] |
| 100 to 1000 nM | ≤ 0.1 µM | O=C1CCC(N2Cc3cc(N4CCN(c5ccc(C6CCOC6)cc5)C4=O)ccc3C2=O)C(=O)N1 (centres unmarked) [Compound 144, 3-(1-oxo-5-(2-oxo-3-(4-(tetrahydrofuran-3-yl)phenyl)imidazolidin-1-yl)isoindolin-2-yl)piperidine-2,6-dione] |
| 100 to 1000 nM | ≤ 0.1 µM | O=C1CCC(N2Cc3cc(N4CCN(c5ccc(C(F)(F)F)cc5)C4=O)ccc3C2=O)C(=O)N1 (centres unmarked) [Compound 112, 3-(1-oxo-5-(2-oxo-3-(4-(trifluoromethyl)phenyl)imidazolidin-1-yl)isoindolin-2-yl)piperidine-2,6-dione] |
| 100 to 1000 nM | 0.1 to 1 µM | C[C@@H]1CN(c2ccc3c(c2)CN(C2CCC(=O)NC2=O)C3=O)C(=O)N1C1CCOC1 (stereo partly drawn) [Compound 161, 3-(5-((4R)-4-methyl-2-oxo-3-(tetrahydrofuran-3-yl)imidazolidin-1-yl)-1-oxoisoindolin-2-yl)piperidine-2,6-dione] |
| 100 to 1000 nM | ≤ 0.1 µM | COCc1cccc(N2C(=O)N(c3ccc4c(c3)CN(C3CCC(=O)NC3=O)C4=O)C[C@H]2C)c1 (stereo partly drawn) [Compound 149, 3-(5-((R)-3-(3-(methoxymethyl)phenyl)-4-methyl-2-oxoimidazolidin-1-yl)-1-oxoisoindolin-2-yl)piperidine-2,6-dione] |
| 100 to 1000 nM | ≤ 0.1 µM | C[C@H]1CN(c2ccc3c(c2)CN(C2CCC(=O)NC2=O)C3=O)C(=O)N1c1ccccc1 (stereo partly drawn) [Compound 109, 3-(5-((S)-4-methyl-2-oxo-3-phenylimidazolidin-1-yl)-1-oxoisoindolin-2-yl) piperidine-2,6-dione] |
| 100 to 1000 nM | > 1 µM | O=C1CCC(N2Cc3cc(N4CCN(C5CN(c6ccccn6)C5)C4=O)ccc3C2=O)C(=O)N1 (centres unmarked) [Compound 184, 3-(1-oxo-5-(2-oxo-3-(1-(pyridin-2-yl)azetidin-3-yl)imidazolidin-1-yl)isoindolin-2-yl)piperidine-2,6-dione] |
| > 1000 nM | > 1 µM | O=C1CCC(N2Cc3cc(N4CCN(c5cccc6nc[nH]c56)C4=O)ccc3C2=O)C(=O)N1 (centres unmarked) [Compound 175, 3-(5-(3-(1H-benzo[d]imidazol-7-yl)-2-oxoimidazolidin-1-yl)-1-oxoisoindolin-2-yl) piperidine-2,6-dione] |
| 100 to 1000 nM | > 1 µM | O=C1CCC(N2Cc3cc(N4CCN(C(c5ccccc5)C(F)(F)F)C4=O)ccc3C2=O)C(=O)N1 (centres unmarked) [Compound 179, 3-(1-oxo-5-(2-oxo-3-(2,2,2-trifluoro-1-phenylethyl)imidazolidin-1-yl)isoindolin-2-yl)piperidine-2,6-dione] |
| ≤ 100 nM | 0.1 to 1 µM | O=C1CCC(N2Cc3cc(N4CCN(c5ccc6[nH]cnc6c5)C4=O)ccc3C2=O)C(=O)N1 (centres unmarked) [Compound 170, 3-(5-(3-(1H-benzo[d]imidazol-5-yl)-2-oxoimidazolidin-1-yl)-1-oxoisoindolin-2-yl) piperidine-2,6-dione] |
| 100 to 1000 nM | ≤ 0.1 µM | Cc1cccc(N2CCN(c3ccc4c(c3)CN(C3CCC(=O)NC3=O)C4=O)C2=O)c1 (centres unmarked) [Compound 110, 3-(1-oxo-5-(2-oxo-3-(m-tolyl)imidazolidin-1-yl)isoindolin-2-yl)piperidine-2,6-dione] |
| 100 to 1000 nM | 0.1 to 1 µM | COC(C)c1ccccc1N1CCN(c2ccc3c(c2)CN(C2CCC(=O)NC2=O)C3=O)C1=O (centres unmarked) [Compound 169, 3-(5-(3-(2-(1-methoxyethyl)phenyl)-2-oxoimidazolidin-1-yl)-1-oxoisoindolin-2-yl)piperidine-2,6-dione] |
| 100 to 1000 nM | 0.1 to 1 µM | CN1CCN(c2ccc(N3CCN(c4ccc5c(c4)CN(C4CCC(=O)NC4=O)C5=O)C3=O)cc2)CC1 (centres unmarked) [Compound 163, 3-(5-(3-(4-(4-methylpiperazin-1-yl)phenyl)-2-oxoimidazolidin-1-yl)-1-oxoisoindolin-2-yl)piperidine-2,6-dione] |
| 100 to 1000 nM | ≤ 0.1 µM | Cc1ccc(N2C(=O)N(c3ccc4c(c3)CN(C3CCC(=O)NC3=O)C4=O)C[C@@H]2C)cc1 (stereo partly drawn) [Compound 145, 3-(5-((S)-4-methyl-2-oxo-3-(p-tolyl)imidazolidin-1-yl)-1-oxoisoindolin-2-yl)piperidine-2,6-dione] |
| 100 to 1000 nM | ≤ 0.1 µM | CC(C)c1cccc(N2CCN(c3ccc4c(c3)CN(C3CCC(=O)NC3=O)C4=O)C2=O)c1 (centres unmarked) [Compound 119, 3-(5-(3-(3-isopropylphenyl)-2-oxoimidazolidin-1-yl)-1-oxoisoindolin-2-yl)piperidine-2,6-dione] |
